{"source": "patent US20180296586A1", "about": "“USE OF NADPH FOR PREPARATION OF A DRUG FOR ANTIPLATELET AGGREGATION” (Chongqing Institute of Bench-to-Bed Bioengineering …, priority 2015, published 2018)", "key": {"[1]": {"test_system": "ADP-induced platelet aggregation", "assay": "ADP-induced platelet aggregation of rats, in-vitro administration of NADPH", "assay_type": "cell-based", "conditions": "rat PRP, NADPH 30, 60 and 90 μM in vitro, ADP 20 μM, 4 min; P<0.05, P<0.01 vs ADP group", "procedure": "(§1) 20 rats are subjected to blood drawing from abdominal aorta, 3.8% sodium citrate is used for carrying out anticoagulation treatment according to a drawn blood volume/anticoagulant ratio of 9:1, centrifugation is carried out for 5 min at a rate of 1000 r/min, upper-layer platelet-rich plasma (PRP) is sucked out, remaining blood is subjected to centrifugation for 10 min at a rate of 3000 r/min to prepare platelet-poor plasma (PPP) until the number of platelets is 2*10<8>/mL, and platelet aggregation is detected by adopting a platelet aggregometer Chronolog-590.\n(§2) The platelet aggregometer is turned on and preheated for 30 min, and light transmittance is adjusted to 100% with PPP as blank control. 0.25mL of NADPH samples of different concentrations (30 μM, 60 μM and 90 μM) are added into PRP, preheating is conducted for 5 min at the temperature of 37 DEG C., the preheated material is put into the aggregometer, then, a certain amount of ADP (20 μM) is added to induce platelet aggregation, graphic changes in 4 min are recorded, and conditions of ADP-induced platelet aggregation caused by NADPH are observed."}, "[2]": {"test_system": "thrombin-induced platelet aggregation", "assay": "Thrombin-induced platelet aggregation of rats, in-vitro administration of NADPH", "assay_type": "cell-based", "conditions": "rat PRP, NADPH 30, 60 and 90 μM in vitro, thrombin 2U, 4 min; P<0.05, P<0.01 vs thrombin group", "procedure": "as §1\nas §2, with “100 %” for “100%”, “0.25 mL” for “0.25mL”, “thrombin (2U)” for “ADP (20 μM)”, “thrombin-induced” for “ADP-induced”"}, "[3]": {"test_system": "ADP-induced platelet aggregation", "assay": "ADP-induced platelet aggregation after preventive administration of NADPH in rats", "assay_type": "in vivo, rat", "conditions": "NADPH 7.5 mg/kg caudal vein 30 min before blood drawing, ADP 20 μM, P<0.01", "procedure": "as §1, with “Normal SD male rats are randomly divided into 2 groups, i.e., a physiological saline group (saline group) and an NADPH (7.5 mg/kg) dosage group in a manner that each group comprises 10 rats. NADPH is injected into the rats through caudal veins 30 min before blood drawing. The” for “20”\nThe platelet aggregometer is turned on and preheated for 30 min, and light transmittance is adjusted to 100% with PPP as blank control. APRP sample of the physiological saline group (saline group) and a PRP sample of the NADPH (7.5 mg/kg) dosage group are preheated for 5 min at the temperature of 37 DEG C., the preheated PRP samples are put into the aggregometer, then, a certain amount of ADP (20 μM) is added to induce platelet aggregation, graphic changes in 4 min are recorded, and conditions of ADP-induced platelet aggregation caused by NADPH are observed."}, "[4]": {"test_system": "thrombin-induced platelet aggregation", "assay": "Thrombin-induced platelet aggregation after preventive administration of NADPH in rats", "assay_type": "in vivo, rat", "conditions": "NADPH 7.5 mg/kg caudal vein 30 min before blood drawing, thrombin 2U, P<0.01", "procedure": "as §1, with “Normal SD male rats are randomly divided into 2 groups, i.e., a physiological saline group (saline group) and an NADPH (7.5 mg/kg) dosage group in a manner that each group comprises 10 rats. NADPH is injected into the rats through caudal veins 30 min before blood drawing. The” for “20”\nThe platelet aggregometer is turned on and preheated for 30 min, and light transmittance is adjusted to 100% with PPP as blank control. […]"}}, "data": [{"smiles": "NC(=O)C1=CN([C@@H]2O[C@H](COP(=O)(O)OP(=O)(O)OC[C@H]3O[C@@H](n4cnc5c(N)ncnc54)[C@H](OP(=O)(O)O)[C@@H]3O)[C@@H](O)[C@H]2O)C=CC1", "note": "[NADPH, Reduced triphosphopyridine nucleotide]", "values": [{"measurement": "inhibition of ADP-induced platelet aggregation", "setting": "[1]", "result": "inhibits ADP-induced platelet aggregation of rats in a dose-dependent mode"}, {"measurement": "inhibition of thrombin-induced platelet aggregation", "setting": "[2]", "result": "inhibits thrombin-induced platelet aggregation of the rats in a dose-dependent mode"}, {"measurement": "inhibition of ADP-induced platelet aggregation", "setting": "[3]", "result": "remarkably inhibit ADP-induced platelet aggregation"}, {"measurement": "inhibition of thrombin-induced platelet aggregation", "setting": "[4]", "result": "remarkably inhibit thrombin-induced platelet aggregation"}]}]}
